# Assay results from paper PMC11820896, “New Compounds with Enhanced Biological Activity Through the Strategic Introduction of Silylated Groups into Hydroxystearic Acids” (Molecules, 2025).
# Like-named read-outs stand apart in the source and are kept apart here.
# What was measured:
# FASN = FASN mRNA expression, qRT-PCR; type: cell-based, human; details: after 6 h of treatment, HT29
# Description: (§1) Total RNA from control- and 4-treated HT29 cells was isolated using the RNeasy Mini Kit (Qiagen, Hilden, Germany) according to the manufacturer's protocol. RNA was quantified using the NanoDrop spectrophotometer (Thermo Fisher Scientific, Waltham, MA, USA). RNA (1 μg) was transcribed into cDNA using the PrimeScript RT Master Mix (Perfect Real Time) (Takara Bio, Kusatsu, Japan) according to the manufacturer's instructions. Real-time PCR was performed using the Sybr Premix Ex Taq Takara kit (Takara Bio, Kusatsu, Japan) and the LightCycler 2.0 instrument (Roche Diagnostic, Basel, Switzerland). The following primers (Sigma-Aldrich, Milan, Italy) were used: [NT] (forward) and [NT] (reverse) for FASN detection, [NT] (forward) and [NT] (reverse) for SCD1 detection, and [NT] (forward) and [NT] (reverse) for the detection of β-actin. The first gene analyzed was the housekeeping gene β-actin, and its CT values were used as standards in the ΔΔCT method of result analysis. cDNA samples from HT29-treated cells were compared with untreated control cells.
# HT29 cells [1] = assay: Cell cycle analysis by flow cytometry (PI); type: cell-based, human; details: 50 nM, 24 h
# Description: HT29 cells were treated with compound 4 for 24 h and then detached with 0.11% trypsin/0.02% ethylenediaminetetraacetic acid (EDTA) (Sigma-Aldrich, St. Louis, MO, USA), washed in PBS, and centrifuged. Cells were stained and analyzed according to […] al..
# HT29 cells [2] = assay: Neutral lipid staining (LipidTOX), confocal microscopy; type: cell-based, human; details: 50 nM, 48 h
# Description: HT29 cells were grown on glass coverslips, treated as described above, and then washed three times with PBS. The intracellular accumulation of neutral lipids was assessed using LipidTOX™ Red Neutral Lipid Dye (Thermo Fisher Scientific, Waltham, MA, USA) according to the manufacturer’s indications. Specimens embedded in Mowiol were analyzed by confocal microscopy using a Nikon C1si confocal microscope (Nikon, Tokyo, Japan). Fluorescence was excited with a laser tuned at 595 nm, and detected at 650 nm.
# HT29 = assay: MTT assay, HT29 cells; type: cell-based, human; details: for IC50: Homo sapiens, HT-29, means of four experiments
# Description: (§2) The human colorectal adenocarcinoma (Caco-2), human colorectal adenocarcinoma (HT29), normal human intestinal (I407), human cervical cancer (HeLa), human breast cancer (MCF7), human bone osteosarcoma (U2OS), and human acute T-cell leukemia (Jurkat J6) cell lines were purchased from American Type Culture Collection (ATCC, Manassas, VA, USA). Cells were cultured in RPMI 1640 medium (Labtek Eurobio, Milan, Italy), supplemented with 10% FCS (Euroclone, Milano, Italy) and 2 mM L-glutamine (Sigma-Aldrich, Milano, Italy), at 37 °C and in a 5% CO2 atmosphere. The compounds were dissolved in DMSO in a 30–40 mM stock solution. In cell treatments, the final DMSO concentration never exceeded 0.1%.
# (§3) Cells were seeded in a 96-well culture plastic plate (Sarsted, Milan, Italy), at 5 × 10^4 cells/well and, after 24 h, were exposed to increasing concentrations of the different compounds (from 1 nM to 500 nM) dissolved in RPMI 1640 medium. An MTT assay was performed according to Micheletti et al..
# (§4) The absorbance at 570 nm was measured using a multi-well plate reader (Tecan, Männedorf, Switzerland), and data were analyzed by Prism GraphPad 8 software and expressed as IC50 nM.
# HT29 cells [3] = assay: Mitochondrial potential by JC-1 staining; type: cell-based, human; details: 24 h treatment
# Description: JC-1 is a dye that is permeable to alive cells and is accumulated in the anionic mitochondrial matrix indicating the level of mitochondrial potential. When present at low concentrations, the JC-1 monomer fluorescence is green (around 535 nm), while at increased concentration, it can aggregate and fluoresces in the red (600 nm). The ratio between the red fluorescence and the green one is directly proportional to the mitochondrial activity. […] Negative controls were treated in the same way, but JC-1 was not added to these samples. The plates were read on the Ensight plate reader, exciting the red fluorescence at 506 nm and the green one at 488 nm, while the emission was, respectively, read at 595 nm and 535 nm, and the ratio between the red and green fluorescence was calculated.
# HeLa = assay: MTT assay, HeLa cells; type: cell-based; details: Homo sapiens, means of four experiments, na = not active, read-out: In vitro cytotoxic activity (IC50), HeLa
# Description: as §2, §3, §4
# HT29 cells [4] = assay: ROS assay (DClFDA staining); type: cell-based, human; details: 24 h treatment
# Description: ROS were detected by DClFDA staining. This probe is not fluorescent and is permeable to alive cells, where the acetometoxyesther is cleaved by the […] intracellular estherases. This product is made fluorescent by the concomitant action of ROS, which peroxidize the molecule. The intensity of the fluorescence is, therefore, proportional to the production of intracellular ROS. HT29 cells were grown on a 96-well black plate, treated for 24 h with 4, washed in Hanks’ buffer, stained with 2 µM DClFDA, and incubated at 37 °C in the dark for 30 min. Negative controls were treated in the same way, but DClFDA was not added to these samples. The cells were washed in fresh Hanks’ buffer and resuspended in Hanks’ buffer containing Hoechst 33342 1 µg/mL to stain cell nuclei, to evaluate the cell density in the wells. The fluorescences were read with the plate reader Ensight (Perkin Elmer, Waltham, MA, USA) with excitation wavelengths, respectively, 488 nm for DClF and 360 nm for Hoechst and emission wavelength 535 nm for DClF and 454 for Hoechst 33342. The intensity of DClF fluorescence was normalized on Hoechst fluorescence and is expressed in Arbitrary Units (AU).
# MCF7 = assay: MTT assay, MCF7 cells; type: cell-based; details: Homo sapiens, means of four experiments, na = not active, read-out: In vitro cytotoxic activity (IC50), MCF7
# Description: as §2, §3, §4
# SCD1 = SCD1 mRNA expression, qRT-PCR; type: cell-based, human; details: after 24 h, HT29
# Description: as §1
smiles,measurement,setting,value
"CCCCCCCCC[C@H](CCCCCCCC(=O)O)O[Si](C)(C)C(C)(C)C [Compound 4, (R)-9-((tert-butyldimethylsilyl)oxy)octadecanoic acid]",FASN gene expression,FASN,marked down-regulation
same,decrease in G2/M phase,HT29 cells [1],80.3 ± 6.1%
same,decrease in S phase,HT29 cells [1],66.4 ± 8.9%
same,increase in the G0/G1 phase,HT29 cells [1],41.8 ± 0.2%
same,accumulation of lipid droplets (neutral lipids),HT29 cells [2],significantly reduces
same,IC50,"HT29; MTT after 24 h of treatment, read-out: IC50 nM, HT29 (Table 2)",20.9 ± 0.21 nM
same,IC50,"HT29; MTT, na = not active, read-out: In vitro cytotoxic activity (IC50), HT29",20.3 ± 0.24 nM
same,"S.I. (Selective Index), HT29",HT29; versus normal I407 cells,2.96
same,change in mitochondrial potential,HT29 cells [3],does not lead to a change
same,IC50,HeLa,166.1 ± 0.33 nM
same,change in ROS content,HT29 cells [4],does not lead to a change
same,IC50,MCF7,211.6 ± 0.23 nM
same,SCD1 gene expression,SCD1,decreases
